The values that follow come from patent publication US12286418B2, “Compounds and methods for treating or preventing bacterial infections” (priority 2019, dated 2025).

For orientation: Ki means the equilibrium dissociation constant of an inhibitor or competing ligand from its target. Low values mean tighter binding, high ones weaker binding. What is called Kd is the free concentration of one partner at which half of the binding sites on the other are occupied at equilibrium, for simple one-to-one binding.

For assay [1], the target named is T1, OXA-48 (Klebsiella pneumoniae, UniProt Q6XEC0). Briefly: Example 8 inhibition assay with nitrocefin (aromatic acids): OXA-48. In kind it is biochemical. Details: His-tag (N, cleaved yes); made in house; host or cells: E. coli BL21(DE3), pET28a. How it is done:
(§1) For each of the OXA enzymes, the nitrocefin steady states were determined so nitrocefin could be used as a reporter in the inhibition assays. Nitrocefin (MilliporeSigma, Burlington, MA) was kept at −20° C. upon purchase and thawed at room temperature and diluted in DMSO for usage. DMSO stocks were aliquoted and kept at −20° C. for only up to 2 weeks after dissolving. To determine the steady state kinetic parameters for nitrocefin hydrolysis, reactions were monitored on a DU-800 spectrophotometer (Beckman Coulter, Brea, CA) at 25° C. Enzyme and substrate samples were diluted using 50 mM HEPES, pH 7.5, 15 mM NaHCO3, and 0.02% Tween-20. Hydrolyzed nitrocefin was tracked at 482 nm. For a single experiment, a series of at least 5 nitrocefin concentrations was tested against the given enzyme. Each substrate concentration was tested in duplicate and initial velocities were averaged (for a given concentration) and fit the Michaelis-Menten equation. The experiment was repeated for rigor. The Km values determined for each enzyme was used to determine the amount of nitrocefin to use in the inhibition assays.
The inhibition activity for compounds were assessed using inhibition assays with nitrocefin as the reporter. A constant concentration of nitrocefin and the given enzyme was used with increasing concentrations of the compound in question. […] The enzymes OXA-24, OXA-48 and OXA-58 were used in their corresponding inhibition experiments at a constant concentration of 0.2 nM, 0.2 nM and 0.1 nM respectively. Compounds were tested at up to 500-4000 μM depending on solubility and absorbance output. The initial velocity of nitrocefin hydrolysis was monitored using a Tecan M200 Infinite Pro plate reader (Tecan, Mannedorf, Switzerland). The velocities at various compound concentrations were fit to the Morrison Tight Binding equation to determine the Ki value for the given fragment with the given OXA enzyme. Ligand efficiency (LE) was calculated using a previously reported equation: LE=1.37 (pKi)/(# non-Hydrogen atoms). […]

Assay [2] deals with T1, OXA-48. As to the kind of experiment: OXA-48 inhibition assay using nitrocefin as reporter. Details: His-tag (N, cleaved yes); made in house; host or cells: E. coli BL21(DE3), pET28a. The settings on record: for potency/activity against OXA-48 in words: purified OXA-48, compared with CDD-97 where a derivative. In kind it is biochemical. The procedure: Nitrocefin, a chromogenic β-lactam substrate, was used as a reporter in all inhibition assays with the various OXA enzymes and various compounds. Nitrocefin is not stable in aqueous solution long-term. For these assays, nitrocefin stocks were prepared in DMSO, stored at −20° C. and used within 2 weeks of dissolving. To avoid freeze-thawing, fresh stocks were always used. The Km of nitrocefin was determined prior to inhibition assays by performing steady state kinetics. Assays were performed using a DU800 spectrophotometer at room temperature in 50 mM HEPES pH 7.5, 15 mM NaHCO3, and 0.02% tween 20 buffer. Hydrolyzed nitrocefin was detected at 482 nm. For a single experiment, a series of at least 5 nitrocefin concentrations were tested against the given enzyme in duplicate and the initial velocities were measured and fit to the Michaelis-Menten equation. Experiments were repeated twice, and error reported is the standard error of the mean.
Compounds were tested for inhibition of a given OXA enzyme from hydrolyzing nitrocefin using a Tecan plate reader. […] A control with no compound was included in each run. For each compound concentration, the velocity of nitrocefin hydrolysis was determined at 482 nm and fit to the Morrison equation. […] The average Ki of separate experiments, each of which consisted of duplicate runs, is reported and error was quantified as the standard deviation.
The activity of these derivatives was assessed using inhibition assays with purified OXA-48. Compounds were tested for the ability to inhibit OXA-48 from hydrolyzing nitrocefin, a chromogenic β-lactam substrate routinely used in β-lactamase inhibition assays. Nitrocefin contains a conjugated ring system that is readily hydrolyzed and produces a visible color shift from yellow to red upon hydrolysis (O'Callaghan, et al., 1972, Antimicrob. Agents Chemother. 1:283-288). The rate of nitrocefin hydrolysis in the presence of a constant amount of OXA-48 and increasing concentrations of a given compound of interest was monitored at 482 nm. These rates were plotted against compound concentration to determine the inhibition constant (Ki) against OXA-48. […] SPR was performed using 6×-His-OXA-48 enzyme that was amine-coupled on a Ni-NTA Chip. Meropenem, which covalently binds and inhibits OXA-48, was used as a positive control.

Assay [3] concerns the target T1, OXA-48. Briefly: Surface plasmon resonance binding to immobilized 6x-His-OXA-48. Details: His-tag (N, cleaved yes); made in house; host or cells: E. coli BL21(DE3), pET28a. The following applies: SPR, immobilized His-OXA-48, positive control. How it is done: 6×-His-OXA-48 was capture/amine-coupled on a Ni-NTA Chip at a density of ˜5000 RU. Running buffer was 10 mM HEPES pH 7.4, 150 NaCl, 50 mM NaHCO3, 0.005% Tween-20, 2% DMSO. Concentration gradients of each compound were created from 0-15 μM using OneStep Injections in at least triplicates for meropenem and CDD-97.
Synthon-derivatives were created, without DNA tags, based on high OXA-48 enrichment and minimal NTC enrichment. The activity of these derivatives was assessed using inhibition assays with purified OXA-48. Compounds were tested for the ability to inhibit OXA-48 from hydrolyzing nitrocefin, a chromogenic β-lactam substrate routinely used in β-lactamase inhibition assays. Nitrocefin contains a conjugated ring system that is readily hydrolyzed and produces a visible color shift from yellow to red upon hydrolysis (O'Callaghan, et al., 1972, Antimicrob. Agents Chemother. 1:283-288). The rate of nitrocefin hydrolysis in the presence of a constant amount of OXA-48 and increasing concentrations of a given compound of interest was monitored at 482 nm. These rates were plotted against compound concentration to determine the inhibition constant (Ki) against OXA-48. Compounds with promising activity were also assessed for binding using surface plasmon resonance (SPR). SPR was performed using 6×-His-OXA-48 enzyme that was amine-coupled on a Ni-NTA Chip. Meropenem, which covalently binds and inhibits OXA-48, was used as a positive control.

A further assay deals with T2, OXA-24 (Acinetobacter baumannii, UniProt Q8RLA6).
T2 construct: His-tag (N, cleaved yes); made in house; host or cells: E. coli BL21 (DE3), pET28a
T2 sequence (Q8RLA6 entry or part of it): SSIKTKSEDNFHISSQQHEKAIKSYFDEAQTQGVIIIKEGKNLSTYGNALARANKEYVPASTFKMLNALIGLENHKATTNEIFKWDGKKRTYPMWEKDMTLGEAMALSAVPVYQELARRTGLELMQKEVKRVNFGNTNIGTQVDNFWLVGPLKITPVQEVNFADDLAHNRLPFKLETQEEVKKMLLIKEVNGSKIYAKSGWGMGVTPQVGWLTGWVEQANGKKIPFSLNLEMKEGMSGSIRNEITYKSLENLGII
As to the kind of experiment: Example 8 inhibition assay with nitrocefin (aromatic acids): OXA-24. In kind it is biochemical. The procedure: as §1, with “Each substrate concentration was tested in duplicate and initial velocities were averaged (for a given concentration) and fit the Michaelis-Menten equation. The experiment was repeated for rigor.” left out
(§2) The inhibition activity for compounds were assessed using inhibition assays with nitrocefin as the reporter. […] Compounds were tested at up to 500-4000 μM depending on solubility and absorbance output. The initial velocity of nitrocefin hydrolysis was monitored using a Tecan M200 Infinite Pro plate reader (Tecan, Mannedorf, Switzerland). […] Ligand efficiency (LE) was calculated using a previously reported equation: LE=1.37 (pKi)/(# non-Hydrogen atoms). […]

The target of a further assay is T3, OXA-58 (Acinetobacter baumannii, UniProt Q2TR58).
T3 construct: His-tag (N, cleaved yes); made in house; host or cells: E. coli BL21 (DE3), pET28a
T3 sequence (Q2TR58 19-280): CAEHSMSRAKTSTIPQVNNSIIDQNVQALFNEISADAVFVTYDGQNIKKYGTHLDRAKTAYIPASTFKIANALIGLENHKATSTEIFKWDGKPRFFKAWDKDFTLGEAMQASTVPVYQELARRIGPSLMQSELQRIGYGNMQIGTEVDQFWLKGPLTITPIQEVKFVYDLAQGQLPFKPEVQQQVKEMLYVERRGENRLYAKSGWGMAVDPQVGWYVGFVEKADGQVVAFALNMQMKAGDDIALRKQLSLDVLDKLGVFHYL
Briefly: biochemical. The procedure: as §1, with “Each substrate concentration was tested in duplicate and initial velocities were averaged (for a given concentration) and fit the Michaelis-Menten equation. The experiment was repeated for rigor.” left out
as §2

For assay [4], the target named is T1, OXA-48. The settings on record: non-β-lactam inhibitors; cited from earlier work.
[5] abbreviates: purified OXA-48, nitrocefin hydrolysis, Morrison fit.

“Also recorded” adds a separate entry of the source.

T1 sequence (Q6XEC0 23-265, looked up): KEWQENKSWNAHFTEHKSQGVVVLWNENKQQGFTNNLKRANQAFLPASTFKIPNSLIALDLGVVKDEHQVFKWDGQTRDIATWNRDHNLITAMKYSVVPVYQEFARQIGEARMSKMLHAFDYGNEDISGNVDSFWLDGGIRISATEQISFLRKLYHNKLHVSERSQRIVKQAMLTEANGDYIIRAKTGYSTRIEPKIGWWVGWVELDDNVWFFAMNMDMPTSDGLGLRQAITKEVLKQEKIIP

For `O=C(O)c1ccc(-c2ccc(C(=O)O)cc2)cc1` [Compound 2.1], at OXA-48 [1] (LE=1.37 (pKi)/(# non-Hydrogen atoms)), the “ligand efficiency (LE) for OXA-48 inhibition” value was 0.36. The molecule further came in with a Ki on OXA-48 [1] (OXA-48 0.2 nM, 25 μM nitrocefin) of 17.2 ± 1 µM.
As for `CN1CCN(c2ncnc(N3CCC(C(=O)O)CC3)n2)CC1` [CDD-187, 1-(4-(4-methylpiperazin-1-yl)-1,3,5-triazin-2-yl)piperidine-4-carboxylic acid], the Ki on OXA-48 [2] (setting [5]) was > 50 µM.
Consider `CCOc1ccccc1N1CCN(c2nc(NCCN)nc(N3CCC(C(=O)O)CC3)n2)CC1` [drawing 44], for which the affinity on OXA-48 [2] (setting [5]), expressed as Ki, was 0.84 ± 0.03 µM.
On OXA-48 [3], `C[C@@H](O)[C@H]1C(=O)N2C(C(=O)O)=C(S[C@@H]3CN[C@H](C(=O)N(C)C)C3)[C@H](C)[C@H]12` [Meropenem, reference compound] yielded a Kd of 0.4235 ± 0.0002 µM.
Take `O=C(O)c1ccccc1O` [Compound 1.1]: the “inhibition activity against OXA-24 in words” value against OXA-24 is given as “low millimolar activity”. In addition, the affinity at OXA-58, expressed as Ki, was 379 ± 44 µM. The “inhibition activity against OXA-48 in words” value against OXA-48 [1] is “low millimolar activity”.
At OXA-48 [2] (setting [5]), “1-(4-(2-(2-ethoxyphenoxy)ethoxy)-1,3,5-triazin-2-yl)piperidine-4-carboxylic acid [CDD-900]” yielded a Ki of 38.1 µM.
The molecule `CCOc1ccccc1N1CCN(c2ncnc(N3CCNC(C(=O)O)CC3)n2)CC1` (stereo not shown) [CDD-559] returned a Ki on OXA-48 [2] (setting [5]) of 29 µM. At OXA-48 [2] (relative to CDD-97), the “fold reduction in potency (OXA-48 Ki) compared to CDD-97” value is recorded as “approximately 50 fold”.
`CCOc1ccccc1N1CCN(c2ncnc(N3CCC(S(=O)(=O)O)CC3)n2)CC1` [drawing 46] displayed a Ki at OXA-48 [2] (setting [5]) of 0.26 ± 0.04 µM.
As to `CCOc1ccccc1N1CCN(c2ncnc(N3CCC(C(N)=O)CC3)n2)CC1` [CDD-553, 1-(4-(4-(2-ethoxyphenyl)piperazin-1-yl)-1,3,5-triazin-2-yl)piperidine-4-carboxamide], the “potency/activity against OXA-48 in words” value at OXA-48 [2] is listed as “significant loss of inhibitory activity”. Moreover, the “Ki for OXA-48 inhibition” value at OXA-48 [2] (setting [5]) is on record as “No binding”.
Consider `O=C(O)C1CCN(c2ncnc(N3CCN(c4ccccc4C(F)(F)F)CC3)n2)CC1` [CDD-180, 1-(4-(4-(2-(trifluoromethyl)phenyl)piperazin-1-yl)-1,3,5-triazin-2-yl)piperidine-4-carboxylic acid], for which affinity at OXA-48 [2] (setting [5]) was put at a Ki of 1.7 µM. That is a single-digit micromolar value.
Turning to `CCOc1ccccc1N1CCN(c2ncnc(N3CCC(C(=O)OC)CC3)n2)CC1` [CDD-95, methyl 1-(4-(4-(2-ethoxyphenyl)piperazin-1-yl)-1,3,5-triazin-2-yl)piperidine-4-carboxylate], at OXA-48 [2], the “potency/activity against OXA-48 in words” value is given as “low of activity; also recorded: significant loss of inhibitory activity”. Moreover, the Ki at OXA-48 [2] (setting [5]) is ≥ 50 µM.
For the molecule `O=C(NC1CCNCC1)[C@@H]1CC[C@@H]2CN1C(=O)N2OS(=O)(=O)O` [relebactam], at OXA-48 [4], the “efficacy against OXA-48 in words” value is “ineffective against OXA-48”.
As for `CCOc1ccccc1N1CCN(c2ncnc(N3CC(F)(C(=O)NC)C3)n2)CC1` [CDD-147, 1-(4-(4-(2-ethoxyphenyl)piperazin-1-yl)-1,3,5-triazin-2-yl)-3-fluoro-N-methylazetidine-3-carboxamide], at OXA-48 [2], the “potency/activity against OXA-48 in words” value was “potency was low”. Further, the Ki at OXA-48 [2] (setting [5]) is > 50 µM.
In turn, `CCOc1ccccc1N1CCN(c2ncnc(N3CCC(N)(C(=O)O)CC3)n2)CC1` yielded a Ki at OXA-48 [2] (setting [5]) of 29 ± 4 µM.
Take `O=C(O)C[C@@H]1CC[C@H](NC(=O)Cc2cccs2)B(O)O1` [vaborbactam]: the “efficacy against OXA-48 in words” value at OXA-48 [4] was “ineffective against OXA-48”.
